Assay results as given in ChEMBL document CHEMBL1201862, “PubChem BioAssay data set” (2004).
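Cultured in 96-well plates, cells were exposed to test compound for 48 hours across five concentrations. The concentration for 50% growth inhibition is given as GI50.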 The source made the active and inactive calls. No stated cut-off is given here; in the data, active = GI50 up to about 1.1 µM and inactive = higher.

Columns and labels:
Test in all cases: DTP human tumour cell line panel, 48 h
786-0 = system: 786-0
A498 = system: A498
A549 = system: A549
ACHN = system: ACHN
CAKI-1 = system: CAKI-1
CCRF-CEM = system: CCRF-CEM
COLO 205 = system: COLO 205
DLD-1 = system: DLD-1
DMS-114 = system: DMS-114
DMS-273 = system: DMS-273
EKVX = system: EKVX
HCC 2998 = system: HCC 2998
HCT-116 = system: HCT-116
HCT-15 = system: HCT-15
HOP-18 = system: HOP-18
HOP-62 = system: HOP-62
HT-29 = system: HT-29
IGROV-1 = system: IGROV-1
K562 = system: K562
KM-20L2 = system: KM-20L2
KM12 = system: KM12
LOX IMVI = system: LOX IMVI
LXFL 529 = system: LXFL 529
M14 = system: M14
M19-MEL = system: M19-MEL
MOLT-4 = system: MOLT-4
Malme-3M = system: Malme-3M
NCI-H460 = system: NCI-H460
OVCAR-3 = system: OVCAR-3
OVCAR-4 = system: OVCAR-4
OVCAR-5 = system: OVCAR-5
OVCAR-8 = system: OVCAR-8
RPMI-8226 = system: RPMI-8226
SF-268 = system: SF-268
SF-295 = system: SF-295
SF-539 = system: SF-539
SK-MEL-28 = system: SK-MEL-28
SK-MEL-2 = system: SK-MEL-2
SK-MEL-5 = system: SK-MEL-5
SK-OV-3 = system: SK-OV-3
SN12C = system: SN12C
SNB-19 = system: SNB-19
SNB-75 = system: SNB-75
SNB-78 = system: SNB-78
SW-620 = system: SW-620
TK-10 = system: TK-10
U-251 = system: U-251
UACC-257 = system: UACC-257
UACC-62 = system: UACC-62
UO-31 = system: UO-31
XF498 = system: XF498
HL-60 = system: HL-60
HOP-92 = system: HOP-92
NCI-H226 = system: NCI-H226
NCI-H23 = system: NCI-H23
NCI-H522 = system: NCI-H522
RXF 393 = system: RXF 393
SR = system: SR

`C[C@H](C(=O)O)C(=O)NC(=O)N(Cc1ccccc1)N=O` was tested, and the GI50 (786-0) was > 100 µM (inactive), the GI50 (A498) was > 100 µM (inactive) and the GI50 (A549) was > 100 µM (inactive). The GI50 (ACHN) was > 100 µM (inactive), the GI50 (CAKI-1) was > 100 µM (inactive) and the GI50 (CCRF-CEM) was 67.1 µM (inactive). For the same compound, the GI50 (COLO 205) was > 100 µM (inactive), the GI50 (DLD-1) was > 100 µM (inactive) and the GI50 (DMS-114) was > 100 µM (inactive). The GI50 (DMS-273) was > 100 µM (inactive), the GI50 (EKVX) was > 100 µM (inactive) and the GI50 (HCC 2998) was > 100 µM (inactive). For the same compound, the GI50 (HCT-116) was > 100 µM (inactive), the GI50 (HCT-15) was over 100 µM and the GI50 (HOP-18) was 0.0525 µM (active). The GI50 (HOP-62) was > 100 µM (inactive), the GI50 (HT-29) was > 100 µM (inactive) and the GI50 (IGROV-1) was > 100 µM (inactive). The GI50 (K562) was 88.3 µM (inactive), the GI50 (KM-20L2) was > 100 µM (inactive) and the GI50 (KM12) was > 100 µM (inactive). For the same compound, the GI50 (LOX IMVI) was > 100 µM (inactive), the GI50 (LXFL 529) was > 100 µM (inactive) and the GI50 (M14) was > 100 µM (inactive). For the same compound, the GI50 (M19-MEL) was > 100 µM (inactive), the GI50 (MOLT-4) was > 100 µM (inactive) and the GI50 (Malme-3M) was > 100 µM (inactive). For the same compound, the GI50 (NCI-H460) was > 100 µM (inactive), the GI50 (OVCAR-3) was > 100 µM (inactive) and the GI50 (OVCAR-4) was > 100 µM (inactive). For the same compound, the GI50 (OVCAR-5) was > 100 µM (inactive), the GI50 (OVCAR-8) was > 100 µM (inactive) and the GI50 (RPMI-8226) was > 100 µM (inactive). For the same compound, the GI50 (SF-268) was > 100 µM (inactive), the GI50 (SF-295) was > 100 µM (inactive) and the GI50 (SF-539) was > 100 µM (inactive). The GI50 (SK-MEL-28) was > 100 µM (inactive), the GI50 (SK-MEL-2) was > 100 µM (inactive) and the GI50 (SK-MEL-5) was > 100 µM (inactive). For the same compound, the GI50 (SK-OV-3) was > 100 µM (inactive), the GI50 (SN12C) was > 100 µM (inactive) and the GI50 (SNB-19) was > 100 µM (inactive). For the same compound, the GI50 (SNB-75) was 98.4 µM (inactive), the GI50 (SNB-78) was > 100 µM (inactive) and the GI50 (SW-620) was > 100 µM (inactive). The GI50 (TK-10) was > 100 µM (inactive), the GI50 (U-251) was > 100 µM (inactive) and the GI50 (UACC-257) was > 100 µM (inactive). The GI50 (UACC-62) was > 100 µM (inactive), the GI50 (UO-31) was > 100 µM (inactive) and the GI50 (XF498) was > 100 µM (inactive).

With `C[C@]12CCC(=O)C=C1CC[C@@H]1C2CC[C@@]2(C)C1CC[C@@H]2OC(=O)C12OC1CCC2=O` (stereo partly drawn) the GI50 (786-0) was 16.5 µM (inactive), the GI50 (A498) was 18 µM (inactive) and the GI50 (A549) was 25 µM (inactive). For the same compound, the GI50 (ACHN) was 15.6 µM (inactive), the GI50 (CCRF-CEM) was 12.2 µM (inactive) and the GI50 (COLO 205) was 17.9 µM (inactive). For the same compound, the GI50 (DMS-114) was 17.7 µM (inactive), the GI50 (DMS-273) was 15.5 µM (inactive) and the GI50 (EKVX) was 15.5 µM (inactive). For the same compound, the GI50 (HCC 2998) was 20.3 µM (inactive), the GI50 (HCT-116) was 15.7 µM (inactive) and the GI50 (HCT-15) was 17 µM. For the same compound, the GI50 (HL-60) was 6.9 µM (inactive), the GI50 (HOP-18) was 17.4 µM (inactive) and the GI50 (HOP-62) was 30.7 µM (inactive). For the same compound, the GI50 (HOP-92) was 19.8 µM (inactive), the GI50 (HT-29) was 18.9 µM (inactive) and the GI50 (IGROV-1) was 10.8 µM (inactive). The GI50 (K562) was 24.4 µM (inactive), the GI50 (KM-20L2) was 18.7 µM (inactive) and the GI50 (KM12) was 18.7 µM (inactive). For the same compound, the GI50 (LOX IMVI) was 16 µM (inactive), the GI50 (LXFL 529) was 14.8 µM (inactive) and the GI50 (M14) was 18.5 µM (inactive). The GI50 (M19-MEL) was 16.7 µM (inactive), the GI50 (MOLT-4) was 10.1 µM (inactive) and the GI50 (Malme-3M) was 19.1 µM (inactive). For the same compound, the GI50 (NCI-H226) was 19.1 µM (inactive), the GI50 (NCI-H23) was 18.8 µM (inactive) and the GI50 (NCI-H460) was 17.9 µM (inactive). For the same compound, the GI50 (NCI-H522) was 10.7 µM (inactive), the GI50 (OVCAR-3) was 18.9 µM (inactive) and the GI50 (OVCAR-4) was 21.6 µM (inactive). The GI50 (OVCAR-5) was 17.9 µM (inactive), the GI50 (OVCAR-8) was 17.9 µM (inactive) and the GI50 (RPMI-8226) was 20.9 µM (inactive). For the same compound, the GI50 (RXF 393) was 5.16 µM (inactive), the GI50 (SF-268) was 20 µM (inactive) and the GI50 (SF-295) was 16.7 µM (inactive). For the same compound, the GI50 (SF-539) was 20.3 µM (inactive), the GI50 (SK-MEL-28) was 17.4 µM (inactive) and the GI50 (SK-MEL-2) was 15.2 µM (inactive). The GI50 (SK-MEL-5) was 16.2 µM (inactive), the GI50 (SK-OV-3) was 41.7 µM (inactive) and the GI50 (SN12C) was 23.2 µM (inactive). For the same compound, the GI50 (SNB-19) was 19.6 µM (inactive), the GI50 (SNB-75) was 16.7 µM (inactive) and the GI50 (SNB-78) was 16.8 µM (inactive). For the same compound, the GI50 (SR) was 17.1 µM (inactive), the GI50 (SW-620) was 16.9 µM (inactive) and the GI50 (TK-10) was 20 µM (inactive). For the same compound, the GI50 (U-251) was 15.1 µM (inactive), the GI50 (UACC-257) was 18 µM (inactive) and the GI50 (UACC-62) was 18.3 µM (inactive). For the same compound, the GI50 (UO-31) was 16.5 µM (inactive) and the GI50 (XF498) was 13.9 µM (inactive).

In the case of `COC(=O)c1cccn1C(=O)n1cccc1`, the GI50 (786-0) is reported as > 100 µM (inactive), the GI50 (A498) is reported as > 100 µM (inactive) and the GI50 (A549) is reported as > 100 µM (inactive). For the same compound, the GI50 (ACHN) was > 100 µM (inactive), the GI50 (CAKI-1) was > 100 µM (inactive) and the GI50 (CCRF-CEM) was > 100 µM (inactive). The GI50 (COLO 205) was > 100 µM (inactive), the GI50 (DLD-1) was > 100 µM (inactive) and the GI50 (DMS-114) was > 100 µM (inactive). The GI50 (DMS-273) was > 100 µM (inactive), the GI50 (EKVX) was > 100 µM (inactive) and the GI50 (HCC 2998) was > 100 µM (inactive). The GI50 (HCT-116) was > 100 µM (inactive), the GI50 (HL-60) was > 100 µM (inactive) and the GI50 (HOP-18) was > 100 µM (inactive). The GI50 (HOP-62) was > 100 µM (inactive), the GI50 (HOP-92) was > 100 µM (inactive) and the GI50 (HT-29) was > 100 µM (inactive). The GI50 (IGROV-1) was > 100 µM (inactive), the GI50 (K562) was > 100 µM (inactive) and the GI50 (KM-20L2) was > 100 µM (inactive). The GI50 (KM12) was > 100 µM (inactive), the GI50 (LOX IMVI) was > 100 µM (inactive) and the GI50 (LXFL 529) was > 100 µM (inactive). For the same compound, the GI50 (M14) was > 100 µM (inactive), the GI50 (M19-MEL) was > 100 µM (inactive) and the GI50 (MOLT-4) was > 100 µM (inactive). The GI50 (Malme-3M) was > 100 µM (inactive), the GI50 (NCI-H226) was > 100 µM (inactive) and the GI50 (NCI-H23) was > 100 µM (inactive). The GI50 (NCI-H460) was > 100 µM (inactive), the GI50 (NCI-H522) was > 100 µM (inactive) and the GI50 (OVCAR-3) was > 100 µM (inactive). The GI50 (OVCAR-4) was > 100 µM (inactive), the GI50 (OVCAR-5) was > 100 µM (inactive) and the GI50 (OVCAR-8) was > 100 µM (inactive). The GI50 (RXF 393) was > 100 µM (inactive), the GI50 (SF-268) was > 100 µM (inactive) and the GI50 (SF-295) was > 100 µM (inactive). For the same compound, the GI50 (SF-539) was > 100 µM (inactive), the GI50 (SK-MEL-28) was > 100 µM (inactive) and the GI50 (SK-MEL-2) was > 100 µM (inactive). For the same compound, the GI50 (SK-MEL-5) was > 100 µM (inactive), the GI50 (SK-OV-3) was > 100 µM (inactive) and the GI50 (SN12C) was > 100 µM (inactive). The GI50 (SNB-19) was > 100 µM (inactive), the GI50 (SNB-75) was 62.1 µM (inactive) and the GI50 (SNB-78) was > 100 µM (inactive). For the same compound, the GI50 (SR) was > 100 µM (inactive), the GI50 (SW-620) was > 100 µM (inactive) and the GI50 (TK-10) was > 100 µM (inactive). For the same compound, the GI50 (U-251) was > 100 µM (inactive), the GI50 (UACC-257) was > 100 µM (inactive) and the GI50 (UACC-62) was > 100 µM (inactive). For the same compound, the GI50 (UO-31) was > 100 µM (inactive) and the GI50 (XF498) was > 100 µM (inactive).
